Reference: PubChem BioAssay (NCI)
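96-well plates; 48 h exposure; 5 concentrations. Endpoints by linear interpolation between flanking doses. Not reached: highest tested concentration assigned. GI50 is the concentration that inhibits growth by half. At the TGI there is no net growth.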

Tests used:
Assay in all cases: NCI tumour cell line growth inhibition, 48 h
MDA-MB-435 = tested on: MDA-MB-435
HCC-2998 colon = tested on: HCC-2998 colon
MALME-3M melanoma = tested on: MALME-3M melanoma
HL-60(TB) leukemia = tested on: HL-60(TB) leukemia
MDA-MB-231 breast = tested on: MDA-MB-231 breast
RXF 393 renal = tested on: RXF 393 renal
NCI-H522 lung = tested on: NCI-H522 lung
SK-MEL-5 melanoma = tested on: SK-MEL-5 melanoma
M14 melanoma = tested on: M14 melanoma
HOP-62 NSCLC = tested on: HOP-62 NSCLC
NCI/ADR-RES ovarian = tested on: NCI/ADR-RES ovarian
SF-295 CNS = tested on: SF-295 CNS
SK-OV-3 ovarian = tested on: SK-OV-3 ovarian
MOLT-4 leukemia = tested on: MOLT-4 leukemia
HS 578T breast = tested on: HS 578T breast
LOX IMVI melanoma = tested on: LOX IMVI melanoma
PC-3 prostate = tested on: PC-3 prostate
A549 NSCLC = tested on: A549 NSCLC
HOP-92 NSCLC = tested on: HOP-92 NSCLC
SN12C renal = tested on: SN12C renal
SW-620 colon = tested on: SW-620 colon
OVCAR-3 ovarian = tested on: OVCAR-3 ovarian
CAKI-1 renal = tested on: CAKI-1 renal
IGROV1 ovarian = tested on: IGROV1 ovarian
BT-549 breast = tested on: BT-549 breast
CCRF-CEM leukemia = tested on: CCRF-CEM leukemia
NCI-H460 lung = tested on: NCI-H460 lung
SNB-75 CNS = tested on: SNB-75 CNS
MCF7 breast = tested on: MCF7 breast
SF-539 CNS = tested on: SF-539 CNS
SF-268 CNS = tested on: SF-268 CNS
SNB-19 CNS = tested on: SNB-19 CNS
OVCAR-8 ovarian = tested on: OVCAR-8 ovarian
UACC-257 melanoma = tested on: UACC-257 melanoma
K-562 leukemia = tested on: K-562 leukemia
TK-10 renal = tested on: TK-10 renal
OVCAR-5 ovarian = tested on: OVCAR-5 ovarian
HT29 colon = tested on: HT29 colon
NCI-H23 lung = tested on: NCI-H23 lung
OVCAR-4 ovarian = tested on: OVCAR-4 ovarian
EKVX NSCLC = tested on: EKVX NSCLC
UACC-62 melanoma = tested on: UACC-62 melanoma
UO-31 renal = tested on: UO-31 renal
RPMI-8226 leukemia = tested on: RPMI-8226 leukemia
HCT-15 colon = tested on: HCT-15 colon
ACHN renal = tested on: ACHN renal
U251 CNS = tested on: U251 CNS
COLO 205 colon = tested on: COLO 205 colon
786-0 renal = tested on: 786-0 renal
SK-MEL-2 melanoma = tested on: SK-MEL-2 melanoma
A498 renal = tested on: A498 renal
SK-MEL-28 melanoma = tested on: SK-MEL-28 melanoma
DU-145 prostate = tested on: DU-145 prostate
HCT-116 colon = tested on: HCT-116 colon
NCI-H226 lung = tested on: NCI-H226 lung
SR leukemia = tested on: SR leukemia
KM12 colon = tested on: KM12 colon

## CC/C=C\C/C=C\C[C@H]1C/C=C2/C(=O)C=C[C@@H]2C/C=C\CCC(=O)O1
MDA-MB-435
  GI50: 0.912 µM
  TGI: 2.75 µM
HCC-2998 colon
  GI50: 0.871 µM
  TGI: 2.32 µM
MALME-3M melanoma
  GI50: 1.96 µM
  TGI: 8.04 µM
HL-60(TB) leukemia
  GI50: 1.22 µM
  TGI: 3.14 µM
MDA-MB-231 breast
  GI50: 1.07 µM
  TGI: 6.03 µM
RXF 393 renal
  GI50: 0.686 µM
  TGI: 1.56 µM
NCI-H522 lung
  GI50: 0.524 µM
  TGI: 1.42 µM
SK-MEL-5 melanoma
  GI50: 0.776 µM
  TGI: 2.1 µM
M14 melanoma
  GI50: 1.02 µM
  TGI: 4.61 µM
HOP-62 NSCLC
  GI50: 1.18 µM
  TGI: 4.65 µM
NCI/ADR-RES ovarian
  GI50: 0.746 µM
  TGI: 1.91 µM
SF-295 CNS
  GI50: 1.83 µM
  TGI: 6.86 µM
SK-OV-3 ovarian
  GI50: 7.18 µM
  TGI: 20.1 µM
MOLT-4 leukemia
  GI50: 0.976 µM
  TGI: 4.37 µM
HS 578T breast
  GI50: 6.08 µM
  TGI: 33.2 µM
LOX IMVI melanoma
  GI50: 0.563 µM
  TGI: 1.11 µM
PC-3 prostate
  GI50: 1.18 µM
  TGI: 4.36 µM
A549 NSCLC
  GI50: 1.22 µM
  TGI: 10.9 µM
HOP-92 NSCLC
  GI50: 3.93 µM
  TGI: 10.4 µM
SN12C renal
  GI50: 1.12 µM
  TGI: 9.69 µM
SW-620 colon
  GI50: 1.65 µM
  TGI: 6.04 µM
OVCAR-3 ovarian
  GI50: 1.08 µM
  TGI: 3.52 µM
CAKI-1 renal
  GI50: 1.29 µM
  TGI: 6.35 µM
IGROV1 ovarian
  GI50: 1.57 µM
  TGI: 5.9 µM
BT-549 breast
  GI50: 1.1 µM
  TGI: 3.61 µM
CCRF-CEM leukemia
  GI50: 1.13 µM
  TGI: 7.05 µM
NCI-H460 lung
  GI50: 1.46 µM
  TGI: 16.3 µM
SNB-75 CNS
  GI50: 1.4 µM
  TGI: 6.92 µM
MCF7 breast
  GI50: 0.936 µM
  TGI: 7.51 µM
SF-539 CNS
  GI50: 0.995 µM
  TGI: 3.46 µM
SF-268 CNS
  GI50: 1.54 µM
  TGI: 9.1 µM
SNB-19 CNS
  GI50: 3.15 µM
  TGI: 8.45 µM
OVCAR-8 ovarian
  GI50: 1.14 µM
  TGI: 4.19 µM
UACC-257 melanoma
  GI50: 1.85 µM
  TGI: 7.82 µM
K-562 leukemia
  GI50: 1.17 µM
  TGI: 9.1 µM
TK-10 renal
  GI50: 1.26 µM
  TGI: 3.43 µM
OVCAR-5 ovarian
  GI50: 1.35 µM
  TGI: 4.95 µM
HT29 colon
  GI50: 0.828 µM
  TGI: 2.04 µM
NCI-H23 lung
  GI50: 0.793 µM
  TGI: 2.79 µM
OVCAR-4 ovarian
  GI50: 1.32 µM
  TGI: 5.66 µM
EKVX NSCLC
  GI50: 1.51 µM
  TGI: 8.3 µM
UACC-62 melanoma
  GI50: 0.767 µM
  TGI: 2.4 µM
UO-31 renal
  GI50: 1.36 µM
  TGI: 4.94 µM
RPMI-8226 leukemia
  GI50: 0.847 µM
  TGI: 2.43 µM
HCT-15 colon
  GI50: 0.735 µM
  TGI: 2.15 µM
ACHN renal
  GI50: 0.727 µM
  TGI: 1.49 µM
U251 CNS
  GI50: 1.16 µM
  TGI: 3.69 µM
COLO 205 colon
  GI50: 1.04 µM
  TGI: 2.82 µM
786-0 renal
  GI50: 1.4 µM
  TGI: 4.97 µM
SK-MEL-2 melanoma
  GI50: 0.871 µM
  TGI: 2.42 µM
A498 renal
  GI50: 5.38 µM
  TGI: 10.2 µM
SK-MEL-28 melanoma
  GI50: 1.02 µM
  TGI: 3.14 µM
DU-145 prostate
  GI50: 1.19 µM
  TGI: 5.04 µM
HCT-116 colon
  GI50: 0.634 µM
  TGI: 1.47 µM

## COc1ccc(CN2C(=O)C(Cl)=C(Nc3cccc(O)c3)C2=O)cc1
MDA-MB-435
  GI50: 0.269 µM
  TGI: 1.7 µM
HL-60(TB) leukemia
  GI50: 1.29 µM
  TGI: 7.49 µM
MDA-MB-231 breast
  GI50: 6.43 µM
  TGI: > 100 µM
RXF 393 renal
  GI50: 2.16 µM
  TGI: 11.3 µM
NCI-H522 lung
  GI50: 2.31 µM
  TGI: 17.6 µM
SK-MEL-5 melanoma
  GI50: 3.78 µM
  TGI: 17.7 µM
M14 melanoma
  GI50: 5.63 µM
  TGI: 75.7 µM
HOP-62 NSCLC
  GI50: 8.61 µM
  TGI: > 100 µM
SF-295 CNS
  GI50: 2.75 µM
  TGI: 31.2 µM
MOLT-4 leukemia
  GI50: 0.501 µM
  TGI: 10.5 µM
HS 578T breast
  GI50: 9.62 µM
  TGI: 51.7 µM
LOX IMVI melanoma
  GI50: 5.7 µM
  TGI: 23 µM
NCI-H226 lung
  GI50: 6.44 µM
  TGI: 50.5 µM
PC-3 prostate
  GI50: 4.39 µM
  TGI: 36.1 µM
A549 NSCLC
  GI50: 3.15 µM
  TGI: 20.5 µM
SR leukemia
  GI50: 0.185 µM
  TGI: 0.465 µM
HOP-92 NSCLC
  GI50: 12.1 µM
  TGI: 59.6 µM
SN12C renal
  GI50: 4.03 µM
  TGI: 20.1 µM
SW-620 colon
  GI50: 4.69 µM
  TGI: > 100 µM
OVCAR-3 ovarian
  GI50: 1.73 µM
  TGI: 23.5 µM
CAKI-1 renal
  GI50: 1.68 µM
  TGI: 21.3 µM
IGROV1 ovarian
  GI50: 0.591 µM
  TGI: 15.2 µM
BT-549 breast
  GI50: 13.7 µM
  TGI: 45.4 µM
CCRF-CEM leukemia
  GI50: 0.748 µM
  TGI: 20.9 µM
NCI-H460 lung
  GI50: 14.6 µM
  TGI: 31.6 µM
SNB-75 CNS
  GI50: 6.73 µM
  TGI: > 100 µM
MCF7 breast
  GI50: 3.64 µM
  TGI: 15.6 µM
SF-539 CNS
  GI50: 4.24 µM
  TGI: 15.9 µM
SF-268 CNS
  GI50: 17.2 µM
  TGI: 45.8 µM
OVCAR-8 ovarian
  GI50: 2.99 µM
  TGI: 15 µM
UACC-257 melanoma
  GI50: 5.64 µM
  TGI: 19.2 µM
K-562 leukemia
  GI50: 0.349 µM
  TGI: 9.13 µM
TK-10 renal
  GI50: 3.77 µM
  TGI: 37 µM
HT29 colon
  GI50: 18 µM
  TGI: > 100 µM
OVCAR-4 ovarian
  GI50: 45.1 µM
  TGI: > 100 µM
EKVX NSCLC
  GI50: 21.5 µM
  TGI: 56 µM
UACC-62 melanoma
  GI50: 2.83 µM
  TGI: 21.1 µM
UO-31 renal
  GI50: 6.91 µM
  TGI: 95.1 µM
RPMI-8226 leukemia
  GI50: 0.807 µM
  TGI: 11.7 µM
HCT-15 colon
  GI50: 2.05 µM
  TGI: 21.4 µM
KM12 colon
  GI50: 0.801 µM
  TGI: 21.6 µM
ACHN renal
  GI50: 10.9 µM
  TGI: 57.3 µM
U251 CNS
  GI50: 5.05 µM
  TGI: 21.1 µM
786-0 renal
  GI50: 4.23 µM
  TGI: > 100 µM
SK-MEL-2 melanoma
  GI50: 4.16 µM
  TGI: 24.5 µM
A498 renal
  GI50: 14.2 µM
  TGI: 35.7 µM
SK-MEL-28 melanoma
  GI50: 13.3 µM
  TGI: > 100 µM
DU-145 prostate
  GI50: 13.8 µM
  TGI: 33 µM
HCT-116 colon
  GI50: 1.14 µM
  TGI: 19.8 µM
